Source: PMC7284870, “Antimicrobial Peptides from Rat-Tailed Maggots of the Drone Fly Eristalis tenax Show Potent Activity against Multidrug-Resistant Gram-Negative Bacteria” (Microorganisms, 2020)
Where two headings read alike, the source gives them in different places. No end group written: not given here.

Tests used:
[1] = tested on: Canida albicans FH2173; assay type: cell-based, Candida albicans; conditions: CAMB, 24 h, 37 °C, n = 4
Experimental: (§1) The strains that were used in this study (Table 2 and Table S1) were cultivated at 37 °C in cation-adjusted Mueller–Hinton broth (CAMB) in Erlenmeyer flasks, or on the same medium with agar in Petri dishes. Exceptionally, Mycobacterium smegmatis was cultivated at 37 °C in brain heart infusion (BHI) medium that was supplemented with 1% Tween-80 in Erlenmeyer flasks, or on the same medium lacking detergent but with agar in Petri dishes. Strains listed with Robert Koch Institute (RKI) strain numbers are clinical isolates from the RKI strain collection originating from hospitalized patients in Germany. The remaining strains originated from the Sanofi strain collection and they were originally purchased from the American Type Culture Collection or the German Collection of Microorganisms and Cell Cultures. Meropenem/colistin-resistant strains were maintained, as described above, with the appropriate antibiotic added at levels below the minimal inhibitory concentration (MIC).
(§2) The MIC values were determined in 384-well microtiter plates with an assay volume of 20 µL. Immediately before each assay, the cultures of test organisms (bacteria grown for 18 h, Candida albicans and M. smegmatis grown for 48 h) were diluted with the appropriate medium to a density of 1 × 10^6 cells/mL (C. albicans), 1 × 10^5 cells/mL (M. smegmatis) or 5 × 10^5 cells per mL (other species). […] We transferred 2-µL aliquots from this dilution series to new 384-well microtiter plates while using a CyBio-Well 384-channel automated pipettor (Analytic Jena, Jena, Germany) and added 18 µL of the diluted suspension of each test species using a Viafill reagent dispenser (Integra), thus reducing the final peptide concentration 10-fold to the range 1024–0.03125 µg/mL. […] The growth of M. smegmatis was measured using the BacTiter-Glo luminescence test system (Promega, Madison, WI, USA). The growth of the other species was determined by visual inspection of the microtiter plate and turbidimetry based on the optical density at 600 nm (OD600). The MIC was defined as the peptide concentration at which no bacterial growth was observed. We supplemented the test medium with either 150 mM NaCl or 1.25 mM CaCl2 to represent monovalent and divalent cations to simulate physiological conditions.

[2] = tested on: Micrococus luteus DSM 20030; assay type: cell-based, Micrococcus luteus; conditions: CAMB, 18 h, 37 °C, n = 4
Experimental: as §1
(§3) The MIC values were determined in 384-well microtiter plates with an assay volume of 20 µL. […] The growth of M. smegmatis was measured using the BacTiter-Glo luminescence test system (Promega, Madison, WI, USA). The growth of the other species was determined by visual inspection of the microtiter plate and turbidimetry based on the optical density at 600 nm (OD600). […]

[3] = tested on: E. coli ATCC 25922
Experimental: as §1
The MIC values were determined in 384-well microtiter plates with an assay volume of 20 µL. Immediately before each assay, the cultures of test organisms (bacteria grown for 18 h, Candida albicans and M. smegmatis grown for 48 h) were diluted with the appropriate medium to a density of 1 × 10^6 cells/mL (C. albicans), 1 × 10^5 cells/mL (M. smegmatis) or 5 × 10^5 cells per mL (other species). The peptides were dissolved in sterile water at a concentration of 10.24 mg/mL and a 1:2 dilution series was prepared in a 384-well microtiter plate to achieve the concentration range 10,240–0.3125 µg/mL in a volume of 50 µL. We transferred 2-µL aliquots from this dilution series to new 384-well microtiter plates while using a CyBio-Well 384-channel automated pipettor (Analytic Jena, Jena, Germany) and added 18 µL of the diluted suspension of each test species using a Viafill reagent dispenser (Integra), thus reducing the final peptide concentration 10-fold to the range 1024–0.03125 µg/mL. The cells were incubated at 37 °C and 85% relative humidity, shaking at 180 rpm for 48 h (M. smegmatis), 24 h (C. albicans) or 18 h (other species). The growth of M. smegmatis was measured using the BacTiter-Glo luminescence test system (Promega, Madison, WI, USA). The growth of the other species was determined by visual inspection of the microtiter plate and turbidimetry based on the optical density at 600 nm (OD600). […] We supplemented the test medium with either 150 mM NaCl or 1.25 mM CaCl2 to represent monovalent and divalent cations to simulate physiological conditions.

[4] = tested on: S. aureus ATCC 33592; assay type: cell-based, Staphylococcus aureus; conditions: CAMB, 18 h, 37 °C, n = 4
Experimental: as §1, §2

[5] = tested on: reference strains; experiment: MIC, several reference strains; assay type: cell-based; conditions: reference strains of Table 2
Experimental: as §1, §3

[6] = tested on: Listeria monocytogenes DSM 20600; assay type: cell-based; conditions: CAMB, 18 h, 37 °C, n = 4
Experimental: as §1, §2

[7] = tested on: Pseudomonas aeruginosa ATCC 27853; assay type: cell-based; conditions: CAMB, 18 h, 37 °C, n = 4
Experimental: as §1, §2

[8] = tested on: Enterococcus faecium DSM 17050; assay type: cell-based; conditions: CAMB, 18 h, 37 °C, n = 4
Experimental: as §1, §2

[9] = tested on: Proteus mirabilis DSM 4479; assay type: cell-based; conditions: CAMB, 18 h, 37 °C, n = 4
Experimental: as §1, §2

[10] = tested on: Klebsiella pneumoniae DSM 30104; assay type: cell-based; conditions: CAMB, 18 h, 37 °C, n = 4
Experimental: as §1, §2

[11] = tested on: Staphylococcus aureus ATCC 25923; assay type: cell-based; conditions: CAMB, 18 h, 37 °C, n = 4
Experimental: as §1, §2

[12] = tested on: Staphylococcus epidermidis ATCC 35984; assay type: cell-based; conditions: CAMB, 18 h, 37 °C, n = 4
Experimental: as §1, §2

[13] = tested on: Acinetobacter baumannii ATCC 19606; assay type: cell-based; conditions: CAMB, 18 h, 37 °C, n = 4
Experimental: as §1, §2

[14] = tested on: Mycobacterium smegmatis ATCC 607; assay type: cell-based; conditions: BHI, 48 h, 37 °C, BacTiter-Glo, n = 4
Experimental: as §1, §2

For “AACSLGSLLNVGCNSCACAAHCLATRGKNGACNSQRRCVCNK (disulfide (positions not given here)) [EtDef1]”, the MIC [1] was over 128 µg/mL, the MIC [2] was over 128 µg/mL and the MIC ([3]; CAMB + A000160918 [4 µg/mL]) was over 256 µg/mL. It also gave an MIC ([3]; CAMB + A000161246 [4 µg/mL]) of over 256 µg/mL, an MIC ([3]; CAMB + A000173031A [4 µg/mL]) of over 256 µg/mL and an MIC ([3]; CAMB + A000173033A [4 µg/mL]) of over 256 µg/mL. The MIC ([3]; CAMB + A000173039A [0.25 µg/mL]) was over 256 µg/mL, the MIC ([3]; CAMB + A000173380A [4 µg/mL]) was over 256 µg/mL and the MIC ([3]; CAMB + A000498432A [4 µg/mL]) was over 256 µg/mL. For the same sequence, the MIC ([3]; CAMB + A000499933A [0.0625 µg/mL]) was over 256 µg/mL, the MIC ([3]; CAMB + A000500059A [0.0625 µg/mL]) was over 256 µg/mL and the MIC ([3]; CAMB + A000500146A [0.0625 µg/mL]) was 128 µg/mL. For the same sequence, the MIC ([3]; CAMB + A000501181A [4 µg/mL]) was over 256 µg/mL, the MIC ([3]; CAMB + Colistin E1 [0.016 µg/mL]) was 128 µg/mL and the MIC ([3]; CAMB + Colistin E2 [0.016 µg/mL]) was 4 µg/mL. It also gave an MIC ([3]; CAMB + PMB [0.016 µg/mL]) of 1 µg/mL, an MIC ([3]; CAMB + PMBN [4 µg/mL]) of over 256 µg/mL and an MIC ([3]; CAMB, 18 h, 37 °C, n = 4) of over 128 µg/mL. For the same sequence, the MIC ([3]; Table 6, CAMB) was over 256 µg/mL, the MIC [4] was over 128 µg/mL and the “activity against the test strains” value [5] was “inactive”. The MIC [6] was over 128 µg/mL, the MIC [7] was over 128 µg/mL and the MIC [8] was over 128 µg/mL. It also gave an MIC [9] of over 128 µg/mL, an MIC [10] of over 128 µg/mL and an MIC [11] of over 128 µg/mL. The MIC [12] was over 128 µg/mL, the MIC [13] was over 128 µg/mL and the MIC [14] was over 128 µg/mL.
